Article PMC11603075 (Communications Biology, 2024)

Assays:
Type in all cases: biochemical
KDM4E [1] = biological target: T1, KDM4E (Homo sapiens, UniProt B2RXH2); experiment: KDM, RDM and hydroxylation (+16 Da) activities of KDM4E with histone peptide variants by MS; details: MALDI–TOF or LC–MS, n = 3
T1 construct: KDM4E1–337; made in house; host or cells: E. coli
T1 sequence (B2RXH2 1-337): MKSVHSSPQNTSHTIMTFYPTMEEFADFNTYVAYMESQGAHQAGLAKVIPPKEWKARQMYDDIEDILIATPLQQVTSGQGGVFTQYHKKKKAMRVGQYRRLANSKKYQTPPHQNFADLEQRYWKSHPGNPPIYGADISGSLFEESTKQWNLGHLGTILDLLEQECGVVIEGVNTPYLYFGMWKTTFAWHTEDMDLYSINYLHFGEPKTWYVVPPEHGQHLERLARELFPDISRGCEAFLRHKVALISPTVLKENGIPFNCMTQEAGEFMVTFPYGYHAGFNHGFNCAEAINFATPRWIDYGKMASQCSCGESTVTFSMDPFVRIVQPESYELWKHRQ
Procedure: Fig. 3 KDM4E-catalysed hydroxylation occurs at Arg-20 on histone H2a peptide. a LC–MS/MS analysis of H2a(1–20) after KDM4E treatment. Two potential hydroxylation sites, R17 and R20, were identified, with the latter more likely (Supplementary Fig. 9). b Peptide variant studies support Arg-20 hydroxylation; specific activities: H2a(1–20), 0.65 nmol min^−1 mg^−1 SD: 0.073; H2a(1–20) with a C-terminal carboxylic acid (indicated with an -OH), no activity; H2a(1–20)R20A, no activity; H2a(1–20)R20K*, no activity; H2a(1–20)R20Kme3*, 0.44 nmol min^−1 mg^−1 SD: 0.04; H2a(1–20)R3me2a*, 0.51 nmol min^−1 mg^−1 SD: 0.05; H2a(1–20)R3A, 0.37 nmol min^−1 mg^−1 SD: 0.002; H2a(1–21)*, 0.65 nmol min^−1 mg^−1 SD 0.02; H2a(1–25, 0.35 nmol min^−1 mg^−1 SD: 0.044; and H2a(10–29), 0.02 nmol min^−1 mg^−1 SD: 0.013. Measurements employed MALDI–TOF MS except when labelled with*, which employed LC–MS (Supplementary Fig. 10 for representative MS data). n = 3 independent assays. c KDM, RDM and hydroxylation (+16 Da) activities of KDM4E are sequence and context dependent. Histone peptides (H2a, H3, H4) and variants (wild type residue in red, replaced with either K, Kme3, R or Rme2a) were incubated with KDM4E and analysed on MALDI–TOF MS. KDM, RDM and hydroxylation (+16 Da) were detected in some but not all peptides (Supplementary Fig. 10 for representative MS data). […]

KDM4E [2] = biological target: T1, KDM4E; experiment: Specific hydroxylation activity of KDM4E; details: for extent of hydroxylation (in words): KDM4E, relative to H2a(1–20)
Procedure: Fig. 3 KDM4E-catalysed hydroxylation occurs at Arg-20 on histone H2a peptide. a LC–MS/MS analysis of H2a(1–20) after KDM4E treatment. Two potential hydroxylation sites, R17 and R20, were identified, with the latter more likely (Supplementary Fig. 9). b Peptide variant studies support Arg-20 hydroxylation; specific activities: H2a(1–20), 0.65 nmol min^−1 mg^−1 SD: 0.073; H2a(1–20) with a C-terminal carboxylic acid (indicated with an -OH), no activity; H2a(1–20)R20A, no activity; H2a(1–20)R20K*, no activity; H2a(1–20)R20Kme3*, 0.44 nmol min^−1 mg^−1 SD: 0.04; H2a(1–20)R3me2a*, 0.51 nmol min^−1 mg^−1 SD: 0.05; H2a(1–20)R3A, 0.37 nmol min^−1 mg^−1 SD: 0.002; H2a(1–21)*, 0.65 nmol min^−1 mg^−1 SD 0.02; H2a(1–25, 0.35 nmol min^−1 mg^−1 SD: 0.044; and H2a(10–29), 0.02 nmol min^−1 mg^−1 SD: 0.013. Measurements employed MALDI–TOF MS except when labelled with*, which employed LC–MS (Supplementary Fig. 10 for representative MS data). n = 3 independent assays. c KDM, RDM and hydroxylation (+16 Da) activities of KDM4E are sequence and context dependent. Histone peptides (H2a, H3, H4) and variants (wild type residue in red, replaced with either K, Kme3, R or Rme2a) were incubated with KDM4E and analysed on MALDI–TOF MS. KDM, RDM and hydroxylation (+16 Da) were detected in some but not all peptides (Supplementary Fig. 10 for representative MS data). (−) No mass changes observed. n = 3 independent assays. See Supplementary Table 6 for conditions. TEXT PRINTED IN THE PICTURE: (c) H2a: K/R replacement K: -; K/R replacement Kme3: KDM/ROH; K/R replacement R: ROH; K/R replacement Rme2a: KDM/ROH | (c) H3: K/R replacement K: -; K/R replacement Kme3: KDM; K/R replacement R: -; K/R replacement Rme2a: RDM | (c) H4: K/R replacement K: -; K/R replacement Kme3: -; K/R replacement R: -; K/R replacement Rme2a: RDM DOUBTS OF THE COPYIST ABOUT THIS PICTURE: Panel c: the table cells are qualitative activity classes (KDM, RDM, ROH, -) for peptide variants, not numbers; it is uncertain whether they count as results. / Panel b: the bar chart prints no values beside the bars, so nothing was taken from it.
(§1) MS-based screening assays with peptides and calf thymus histones were as reported; see Supplementary Table 6 for conditions. Time course assays were based on reported procedures. In brief, equal volumes of the enzyme and substrate solutions were combined to initiate the reaction; 10 µL of 2% (v/v) formic acid (HCOOH) in ddH2O or 100% methanol was added to 10 µL of the reaction mixture to quench reactions at different time points. Unless otherwise stated, time course assays were carried out in triplicate. In some cases, LC–MS was used instead of MALDI-TOF MS to avoid a MALDI matrix induced artefact with the hydroxylated product (Supplementary Fig. 16).
Data collected from time course assay(s) were used to plot the % conversion vs time (min) using GraphPad Prism5 version 5.04; the resultant slopes were used to fit a line with linear regression to the first-order region of the reaction. The resultant gradient was then converted from % product formation min^−1 to amount of peptide converted (demethylation and / or hydroxylation) in µM.
Supplementary Figure 17 Comparison of specific hydroxylation activities of KD M4E with H2a(1–20) when anal ysed by MALDI-TO F MS or LC–MS. Comparison of specific activities for KDM4E catalysed hydroxylation of H2a(1–20) when analysed with MALDI-TOF MS or LC–MS ([…] SD: 0.073 and 0.65 nmol·min−1·mg− 1 SD: 0.01 respectively). n = 3 (independent assays). See Supplementary Table 6 for assay […]
(also on this page, place not known: KDM4E H2a(1 –20) analysed MALDI -TOF LC –MS nmol·min −1·mg−1 nmol·min−1·mg−1 0.8specific activity (nmol·min-1·mg-1)) […]
[ E nz ym e] [Peptide] [2OG] [Ascorbate] [(NH4)2F e(S O4)2] [TCEP] Buffer pH7.5 Enzyme Cognate substrate (mM) (mM) (mM) (mM) (mM) (mM) [HE PE S]
Supplementary Table 6 Summary of MS assay conditions for substrate screening. These conditions […]

KDM4E [3] = biological target: T1, KDM4E; experiment: MALDI–TOF MS demethylation/+16 Da assay, KDM4E; details: 60 min, 2 µM KDM4E, 10 µM peptide
Excerpt: Fig. 2 Histone H2a fragments are KDM5 and KDM4 substrates. […] See Supplementary Table 6 and Supplementary Fig. 2 for assay conditions and quantification, respectively. […] 0-minute MS spectrum in black, 60/90-minute spectrum in red.
as §1, with “16). […]” for “16).”
Supplementary Figure 2 Histone H2a peptide fragments are substrates of KDM4s and KDM5s.
2 for representative corresponding MALDI–TOF MS traces. Bar graphs comparing % product format ion (+16 Da and demethylation) of H2a(1–20)R3me2a by (a) K DM5 A–D (after 90 minutes) and (b) KDM4A–E ( a ft er 60 minutes), analysed by MALDI– TOF MS. n = (a) 2, (b) 3 (independent assays). See Supplementary Table 6 for assay condit ions. See Figure S13 A 1 for a positive control. […]

[4] = MALDI–TOF MS, mean of n = 3, SD: H2a(1–20) 0.073, R3A 0.002, H2a(1–25) 0.044, H2a(10–29) 0.013

Row | Substance | +16 Da mass shift (hydroxylation) (KDM4E [1]) | specific activity (hydroxylation) (KDM4E [2]; Figure 3b, MALDI–TOF MS, replicate 1) [nmol/min/mg] | specific activity (hydroxylation) (KDM4E [2]; Figure 3b, MALDI–TOF MS, replicate 2) [nmol/min/mg] | extent of hydroxylation (in words) (KDM4E [2]) | specific activity (hydroxylation) (KDM4E [2]; [4]) | +16 Da mass shift (KDM4E [3]) | mass shift (KDM4E [1]) | specific activity (hydroxylation) (KDM4E [2]; Figure 3b, LC–MS (*), replicate 1) [nmol/min/mg] | specific activity (hydroxylation) (KDM4E [2]; Figure 3b, LC–MS (*), replicate 2) [nmol/min/mg] | specific activity (hydroxylation) (KDM4E [2]; Figure 3b, LC–MS (*), replicate 3) [nmol/min/mg]
1 | Ac - SGR GKQ GGKAR AKAKT R SSR AGL Q F [H2a(1–25)] | +16 Da mass shift | 0.3027 | 0.3905 | lower | 0.35 nmol/min/mg |  |  |  |  | 
2 | H2a(1–20)R3me1: H2a(1–20) mono-methylated at Arg-3 |  |  |  |  |  | A +16 Da mass shift occurs |  |  |  | 
3 | Ac - SGR GKQ GGKAR AKAKT R SSR - O H [H2a(1–20)-OH, H2a(1–20) with a C-terminal carboxylic acid] |  |  |  | no activity was observed | no activity |  | no mass shift | 0 | 0 | 0
